Results: paper PMC6480704, “Antiproliferative Aspidosperma-Type Monoterpenoid Indole Alkaloids from Bousigonia mekongensis Inhibit Tubulin Polymerization” (Molecules, 2019)
“Also recorded” adds a separate entry of the source. Like-named read-outs stand apart in the source and are kept apart here.

Assays:
[1] = test system: A549 (lung carcinoma); experiment: Antiproliferative SRB assay, A549; assay type: cell-based; details: Homo sapiens, read-out: IC50 A549
Protocol: (§1) We tested the fourteen known aspidosperma-type alkaloids (1–14) against chemosensitive KB (originally isolated from epidermoid carcinoma of the nasopharynx) and P-gp over-expressing multidrug-resistant (MDR) KB subline KB-VIN, as well as three additional human cancer cell lines, A549 (lung carcinoma), MDA-MB-231 (triple negative breast cancer), and MCF-7 (estrogen receptor-positive breast cancer), using a sulforhodamine B (SRB) assay (Table 1).
(§2) Antiproliferative activity was determined by the sulforhodamine B (SRB) colorimetric assay as previously described. In brief, human tumor cell lines were cultured in RPMI-1640 medium containing 2 mM l-glutamine and 25 mM HEPES (Gibco), supplemented with 10% fetal bovine serum (Speciality Media), 100 µg/mL streptomycin, 100 IU/mL penicillin, and 0.25 µg/mL amphotericin B (Corning). MDR stock cells (KB-VIN) were maintained in the presence of 100 nM vincristine (VIN) (Sigma-Aldrich, Saint Louis, MI, USA).
(§3) Freshly trypsinized cell suspensions were seeded in 96-well microtiter plates at densities of 4000–11,000 cells per well (based on the cell lines) with compounds. After 72 h in culture with test compounds, cells were fixed in 10% trichloroacetic acid followed by staining with 0.04% sulforhodamine B (Sigma-Aldrich). The bound SRB was solubilized in 10 mM Tris-base and the absorbance at 515 nm was measured using a Microplate Reader (ELx800, Bio-Tek Instruments, Winooski, VT, USA) operated by Gen5 software (BioTek) after solubilizing the protein-bound dye with 10 mM Tris base. The mean IC50 is the concentration of agent that reduced cell growth by 50% compared with vehicle (DMSO) control under the experimental conditions and is the average from at least three independent experiments with duplicate samples.
(§4) The following human tumor cell lines were used in the assay: A549 (lung carcinoma), MDA-MB-231 (triplen-egative breast cancer), KB (originally isolated from epidermoid carcinoma of the nasopharynx), KB-VIN (VIN-resistant KB subline showing MDR phenotype by overexpressing P-gp), MCF-7 (estrogen receptor (ER)-positive, HER2-negative breast cancer). […] All cell lines were obtained from the Lineberger Comprehensive Cancer Center (UNC-CH) or from ATCC (Manassas, VA), except KB-VIN, which was a generous gift from Professor Y.-C. Cheng (Yale University). Paclitaxel was purchased from Sigma-Aldrich.

[2] = test system: MDA-MB-231 (triple negative breast cancer); experiment: Antiproliferative SRB assay, MDA-MB-231; assay type: cell-based; details: Homo sapiens, read-out: IC50 MDA-MB-231
Protocol: as §1, §2, §3, §4

[3] = test system: KB (originally isolated from epidermoid carcinoma of the nasopharynx); experiment: Antiproliferative SRB assay, KB; assay type: cell-based; details: Homo sapiens, 72 h, read-out: IC50 KB
Protocol: as §1, §2, §3, §4

[4] = test system: KB-VIN (VIN-resistant KB subline showing MDR phenotype by overexpressing P-gp); experiment: Antiproliferative SRB assay, KB-VIN; details: for IC50: Homo sapiens, KBVIN, 72 h, read-out: IC50 KB-VIN; for fold higher concentration required against KB-VIN cells: KB-VIN compared with chemosensitive cells
Protocol: as §1, §2, §3, §4

[5] = test system: MCF-7 (estrogen receptor-positive breast cancer); experiment: Antiproliferative SRB assay, MCF-7; assay type: cell-based; details: Homo sapiens, read-out: IC50 MCF-7
Protocol: as §1, §2, §3, §4

[6] = test system: A549, MDA-MB-231, KB, KB-VIN, and MCF-7; experiment: Antiproliferative SRB assay, values stated across several cell lines; assay type: cell-based, human; details: for antiproliferative activity (in words): five human tumor cell lines including MDR subline KB-VIN
Protocol: as §1, §2, §3, §4

[7] = test system: KB-VIN cells; experiment: Cell cycle analysis by flow cytometry (PI staining); assay type: cell-based, human; details: 24 h, 1 × IC50 or 3 × IC50
Protocol: KB-VIN cells were treated with compounds 3, 4, 6, 7, and 13 at their IC50 (1 × IC50) or three-fold IC50 (3 × IC50) concentration, and the cell cycle progression was analyzed by flow cytometer (Figure 2A).
(§5) Figure 2 Mitotic defects in KB-VIN cells treated by compounds. […] Cell cycle distributions (sub-G1, G1, S, G2/M) were analyzed using flow cytometry after staining cells with propidium iodide (PI). […] Fixed cells were stained with antibodies to α-tubulin (green) and phospho-histone H3 (pH3, red), and DAPI was used for DNA (blue). Stained cells were observed by confocal fluorescence microscope. The represented image is a projection of 15~20 optical sections acquired at 0.5~1 µm intervals. […] Bar, 0.025 mm. Additional images are available in Supplementary Figure S1.
KB-VIN cells were seeded in 12-well plates at a density of 1 × 10^5 per well and incubated overnight. […] The DNA contents of stained cells were analyzed by flow cytometer (LSRFortessa, BD Biosciences) controlled by FACSDiva software (BD Biosciences). Paclitaxel (PXL) was used at 3 or 6 µM. […] Experiments were repeated a minimum of two times.

[8] = test system: KB-VIN cells; experiment: Immunofluorescence staining of α-tubulin, pH3 and DNA; assay type: cell-based, human; details: 24 h, 3 × IC50
Protocol: as §5
To determine whether the cell cycle arrest was due to an antimicrotubule effect, cells treated with compounds were analyzed by immunocytochemistry using antibodies to α-tubulin for microtubules and mitotic spindles, Ser10-phosphorylated histone H3 (pH3) for the condensed chromatins and 4′,6-diamidino-2-phenylindole (DAPI) for DNA. […] Thus, we concluded that these alkaloids are tubulin polymerization inhibitors.
Immunocytochemical analysis was performed as previously described. […] After treatment of cells with the agent for 24 h, cells were fixed with 4% paraformaldehyde in PBS and permeabilized with 0.5% Triton X-100 in PBS. Fixed cells were labeled with mouse monoclonal antibody to α-tubulin (B5-1-2, Sigma) and rabbit IgG to Ser10-phosphorylated histone H3 (p-H3) (#06570, EMD Millipore), followed by FITC-conjugated antibody to mouse IgG (Sigma) and Alexa Fluor 549-conjugated antibody to rabbit IgG (Life Technologies). Nuclei were labeled with DAPI (Sigma). Fluorescently-labeled cells were observed using a confocal microscope (Zeiss, LSM700) with ZEN (black edition) software (Zeiss). The 15~20 optical sections acquired at 0.5~1 µm intervals were stacked and reconstructed using ZEN (black edition) software. Experiments were repeated at least twice for each compound. Final images were prepared using Adobe Photoshop CS3.

[9] = Homo sapiens, A549, KB, KB-VIN, range stated for the group of compounds, read-out: IC50 values ranging over A549, KB and KB-VIN cells
[10] = five human tumor cell lines, read-out: IC50 range over the cell lines tested
[11] = A549, SRB assay, 72 h, positive controls, unit nM
[12] = MDA-MB-231, SRB assay, 72 h, positive controls, unit nM
[13] = SRB assay, positive controls, unit nM
[14] = MCF7, SRB assay, 72 h, positive controls, unit nM

Compound	IC50 [4] [µM]	antiproliferative activity (in words) [6]	IC50 ([1]; A549, SRB assay, 72 h) [nM]	IC50 ([2]; MDA-MB-231, SRB assay, 72 h) [nM]	IC50 ([3]; SRB assay) [nM]	IC50 ([5]; MCF7, SRB assay, 72 h) [nM]	also measured
CC[C@]12C=CCN3CC[C@]4(C(=C(C(=O)OC)C1)Nc1ccccc14)[C@@H]32 [Compound 1, tabersonine]	7.4 ± 0.3	exhibited antiproliferative activity against all cell lines	–	–	–	–	IC50 ([1]; A549, 72 h): 6900 ± 100 nM; IC50 ([2]; MDA-MB-231, 72 h): 5900 nM; IC50 [3]: 5500 nM; IC50 ([5]; MCF7, 72 h): 7200 ± 400 nM
CC[C@]12CCCN3CC[C@]4(C(=C(C(=O)OC)C1)Nc1ccccc14)[C@@H]32 [Compound 2, vincadifformine]	> 40	essentially inactive	> 40000	> 40000	> 40000	> 40000	–
CC[C@]12C=C[C@@H](CC(C)=O)N3CC[C@]4(C(=C(C(=O)OC)C1)Nc1ccccc14)[C@@H]32 [Compound 3, 3α-acetonyl-tabersonine]	0.6 ± 0.1	exhibited antiproliferative activity against all cell lines; also recorded: significant antiproliferative effects against all five tumor cell lines	600	900	600	2200 ± 200	effect on cell cycle progression [7]: accumulation of cells in the G2/M phase; also recorded: cell cycle arrest at G2/M; microtubule / mitotic spindle morphology [8]: dotted tubulin aggregations without spindles; IC50 [6, 9]: 0.5 to 0.9 µM
CC[C@@]12CC(C(=O)OC)=C3Nc4ccccc4[C@@]34CCN([C@H](CC(C)=O)[C@@H]3O[C@@H]31)[C@@H]24 [Compound 4, melodinine S]	6.3 ± 0.2	exhibited antiproliferative activity against all cell lines; also recorded: significant antiproliferative effects against all five tumor cell lines	5600	8200 ± 800	5800 ± 300	10000 ± 900	effect on cell cycle progression [7]: accumulation of cells in the G2/M phase; also recorded: cell cycle arrest at G2/M; microtubule / mitotic spindle morphology [8]: dotted tubulin aggregations without spindles; IC50 [6, 10]: 5.6 to 10 µM
CC[C@@]12CC(C(=O)OC)=C3Nc4ccccc4[C@@]34CCN(C[C@H]3O[C@H]31)[C@@H]24 [Compound 8, pachysiphine]	> 40	essentially inactive	27700 ± 100	34500 ± 200	> 40000	> 40000	–
CC[C@@]12CC(C(=O)OC)=C3Nc4cc(OC)ccc4[C@@]34CCN(C[C@H]3O[C@H]31)[C@@H]24 [Compound 9, lochnerinine]	0.7	exhibited antiproliferative activity against all cell lines	800	6000 ± 800	900	10200 ± 500	fold rise in potency by a methoxy group at C-11 ([6]; 6 compared with 5, 9 compared with 8): ~ 60 fold; IC50 [6, 9]: 0.5 to 0.9 µM
COC(=O)C1=C2Nc3ccccc3C23CCN2CC=CC(C(C)O)(C1)C23 [Compound 10, 19-(R)-hydroxytabersonine]	> 40	essentially inactive	> 40000	> 40000	> 40000	> 40000	–
COC(=O)C1=C2Nc3ccccc3C23CCN2CC=CC(C(C)OC(C)=O)(C1)C23 [Compound 11, 19-(R)-acetoxytabersonine]	> 40	essentially inactive	> 40000	> 40000	26500 ± 2500	> 40000	IC50 [6, 10]: > 26.5 µM
CC[C@]12C=CCN3CC[C@]4(C(=C(C(=O)OC)C1)Nc1cc(OC)ccc14)[C@@H]32 [Compound 12, 11-methoxytabersonine]	5.8 ± 0.1	exhibited antiproliferative activity against all cell lines	5200 ± 100	6800 ± 1100	5400 ± 400	–	IC50 ([5]; MCF7, 72 h): 8200 ± 900 nM
COC(=O)C1=C2Nc3cc(OC)ccc3C23CCN2CC=CC(C(C)OC(C)=O)(C1)C23 [Compound 14, 19-(R)-acetoxy-11-methoxytabersonine]	> 40	essentially inactive	> 40000	> 40000	> 40000	> 40000	–
CC(=O)O[C@H]1C(=O)[C@@]2(C)[C@H]([C@H](OC(=O)c3ccccc3)[C@]3(O)C[C@H](OC(=O)[C@H](O)[C@@H](NC(=O)c4ccccc4)c4ccccc4)C(C)=C1C3(C)C)[C@]1(OC(C)=O)CO[C@@H]1C[C@@H]2O [PXL, paclitaxel, reference compound]	2.36 ± 0.0595	–	–	–	–	–	IC50 [1, 11]: 4.5 ± 0.9 nM; IC50 [2, 12]: 7 ± 0.9 nM; IC50 [3, 13]: 3.7 ± 1.1 nM; fold higher concentration required against KB-VIN cells [4]: 600 fold; IC50 [5, 14]: 8.8 ± 1 nM
CC[C@]1(O)C[C@H]2CN(CCc3c([nH]c4ccccc34)[C@@](C(=O)OC)(c3cc4c(cc3OC)N(C=O)[C@H]3[C@@](O)(C(=O)OC)[C@H](OC(C)=O)[C@]5(CC)C=CCN6CC[C@]43[C@@H]65)C2)C1 [VIN, vincristine, reference compound]	2.48 ± 0.0282	–	–	–	–	–	IC50 [1, 11]: 22.9 ± 2.4 nM; IC50 [2, 12]: 32 ± 0.5 nM; IC50 [3, 13]: 4.4 ± 0.1 nM; fold higher concentration required against KB-VIN cells [4]: 600 fold; IC50 [5, 14]: 7.3 ± 0.2 nM; microtubule / mitotic spindle morphology [8]: with multipolar spindles
